Patent US9107914B2, “Beta-carbolines for use in the treatment of hearing loss and vertigo” (AudioCure Pharma GmbH, priority 2009, dated 2015)

B1: BDNF: brain-derived neurotrophic factor (protein, UniProt P23560 19-247, looked up)
Neurotrophic factor BDNF …: APMKEANIRGQGGLAYPGVRTHGTLESVNGPKAGSRGLTSLADTFEHVIEELLDEDQKVRPNEENNKDADLYTSRVMLSSQVPLEPPLLFLLEEYKNYLDAANMSMRVRRHSDPARRGELSVCDSISEWVTAADKKTAVDMSGGTVTVLEKVPVSKGQLKQYFYETKCNPMGYTKEGCRGIDKRHWNSQCRTTQSYVRALTMDSKKRIGWRFIRIDTSCVCTLTIKRGR
B2: GDNF: Glial cell line derived neurotrophic factor (protein, UniProt P39905 78-211, looked up)
Glial cell line-derived …: SPDKQMAVLPRRERNRQAAAANPENSRGKGRRGQRGKNRGCVLTAIHLNVTDLGLGYETKEELIFRYCSGSCDAAETTYDKILKNLSRNRRLVSDKVGQACCRPIAFDDDLSFLDDNLVYHILRKHSAKRCGCI

How the values were obtained:
[1] = system: human SH-SY5Y neuroblastoma cells; assay: Differentiation model / neurite length in human neuroblastoma cells; assay type: cell-based; settings: 14 days; for neurite length: vs control group, P<0.001; for differentiation / neurite length in comparison to 9-methyl-β-carboline: SH-SY5Y cells; for differentiation / neurite length in comparison to 9-methyl-β-carboline: key: +: marginally better than 9-methyl-β-carboline; ±: equal to 9-methyl-β-carboline; −: marginally worse than 9-methyl-β-carboline
From the text: Human neuroblastoma cells were utilised for this model. These are permanent cells, which are present as an indifferent type in culture. They can be activated to differentiate, i.e. transformation into neuronal cells, by addition of specific substances such as retinoic acid, […] (BDNF) or activator of the enzyme, protein kinase C to the culture medium. We used this cell system to analyse whether beta-carbolines can transform the indifferent cells into the neuronal type. Criteria were: less proliferation (less cells per field of view); smaller cell bodies (transformation from the indifferent type to the neuronal type); cytodendrites (neuritis), which provide connections to neighbouring cells or clusters of neighbouring cells.
Human SH-SY5Y neuroblastoma cells were incubated in culture for 14 days with solvent (Ko) or test substance. A shift of the graph to the right side for a test substance, pointed to an increase of neurite length, when compared to the graph for the control substance. Statistical differences between the treated groups were calculated with the Tukey's Multiple Comparison-Test.
Shown are the cumulative frequency distributions of neurite lengths, determined in at least 20 randomly selected visual fields (each 640.000 μm^2) in three independent experiments. A steep rise pointed to a predominance of short neuritis, wherein for example in control cells, a less steep rise signified a greater number of longer neurites. The horizontal maximum indicated the maximal neurite length of the respective treatment group. […] The effects are dose- and substance-dependent: 1-methyl-β-carboline <6-methoxy-9-methyl-β-carboline <9-methyl-β-carboline <9-fluorethyl-β-carboline).
The effects of the other inventive β-carbolines (compounds A-L and VI-XX) on neurite length were determined, as described above, in human SH-SY5Y neuroblastoma cells after 14 days.

[2] = system: BDNF (brain-derived neurotrophic factor) in human SH-SY5Y cells; assay: Relative gene expression of BDNF (FIG. 4A); assay type: cell-based; settings: SH-SY5Y cells
Method: (§1) Next, it was investigated, whether the substances could induce the formation of nerve growth factors in human SH-SY5Y neuroblastoma cell. After 2 and 14 days the cells were harvested and the expression of the target gene and the house keeping gene was determined via reverse transcriptase-PCR.

[3] = system: transcription factor CREB in SH-SY5Y cells; assay: Dual luciferase method for intracellular cascades (FIG. 5); assay type: cell-based, human; settings: dose-dependent activating effect, 48 h incubation, three independent experiments
From the text: The effects of β-carbolines on several intracellular cascades were investigated. Of them it is known, that at their respective ends, several transcription factors are formed in the cell nucleus, that in turn activate the transcription of a group of further genes. The dual luciferase method was used. One luciferase served as transfection control, whereas the second is coupled to the appropriate specific binding sequence of the DNA.

inner ear of guinea pigs = assay: Prophylaxis of hearing damages in an animal model, gentamicin and etacrynic acid (Example 30); assay type: in vivo; settings: infusion to the round window recess, gentamicin and etacrynic acid i.v.
Method: A solution containing β-carboline was infused continuously into the recess in front of the membrane of the round window of guinea pigs by a osmotic mini-pump for three days. The following β-carbolines were tested individually in this experiment: 9-methyl-β-carboline, compounds XI, XII, XVIII, XIX as well as C to L.
Then, a standard dose of gentamicin and etacrynic acid was injected intravenously into guinea pigs. Gentamicin and etacrynic acid damage the inner ear. Typically, they are used as toxins to induce deafness in such studies. The infusion was continued for further two days. Then, the electrophysiological activity of the nerve cells of the brain stem, which transmit the impulses of the inner ear, was deduced after acoustic irradiation of the ear with […]. The non-β-carboline-treated ear served as intraindividual control (Prieskorn D M, Miller J M. Technical report: chronic and acute intracochlear infusion in rodents. Hear Res, 2000; 140(1-2): 212-215). Moreover, animals were infused with 9-Me-BC only but not with gentamicin as a further control.
The measured electrophysiological activity of the nerve cells of the acoustic nerve (hearing threshold) served as a measure of the degree of therapeutic effect of the used β-carbolines on the inner ear. As can be learned from Table 3, the used β-carbolines show the increase in electrophysiological activity of the nerve cells of the acoustic nerve. It can be concluded from this that β-carbolines are useful for the treatment of hearing damages, vertigo, and vestibular disorders.

[4] = system: BDNF, GDNF, NGF and NPY in human SH-SY5Y neuroblastoma cells; assay: Gene expression of growth factors by reverse transcriptase-PCR (Table 2 summary); assay type: cell-based; settings: after 2 and 14 days; note: key: +: marginally better than 9-methyl-β-carboline; ±: equal to 9-methyl-β-carboline; −: marginally worse than 9-methyl-β-carboline
Method: as §1
The effects of the other inventive β-carbolines (compounds A-L and VI-XX) on the gene expression of BDNF, GDNF, NGF and NPY were determined, as described above, in human SH-SY5Y neuroblastoma cells after 2 and 14 days.

[5] = system: cells of the spiral ganglion of the inner ear; settings: 48 hours of culture; cited from earlier work

| Molecule | neurite length ([1]; 50 μM) | differentiation / neurite length in comparison to 9-methyl-β-carboline [1] | BDNF transcription [2] | formation of the transcription factor CREB relative to the level in control cells [3] | effect on the inner ear (electrophysiological activity, hearing threshold) in comparison to 9-methyl-β-carboline (inner ear of guinea pigs) | gene expression of BDNF, GDNF, NGF and NPY in comparison to 9-methyl-β-carboline [4] | neurite length ([1]; 110 μM) | survival of cells of the spiral ganglion [5] |
| --- | --- | --- | --- | --- | --- | --- | --- | --- |
| COc1ccc2c(c1)c1ccncc1n2C [9-Me-6-MeO—BC (XVIII), 6-methoxy-9-methyl-9H-β-carboline] | increase in neurite length | + | enormous, dose-dependent increase | up to ten times | ± |  |  |  |
| C/C=C/C(C)=C\n1c2ccccc2c2ccnc(Cl)c21 [compound (IX)] |  | − |  |  | − | − |  |  |
| COc1ccc2c(c1)c1ccncc1n2C(C)C [compound (VII)] |  | − |  |  | − | ± |  |  |
| COc1ccc2c(c1)c1ccncc1n2C1CC1 [compound (XI)] |  | + |  |  | ± | ± |  |  |
| Cn1c2ccc(OC(F)(F)F)cc2c2ccncc21 [compound (XII)] |  | + |  |  | + | + |  |  |
| CN(C)c1ccc2c(c1)c1ccncc1n2C [compound (XIII)] |  | ± |  |  | ± | ± |  |  |
| COc1nccc2c3cc(Cl)ccc3n(C)c12 [compound (XIV)] |  | − |  |  | − | − |  |  |
| Cc1ccc2c(c1)c1ccnc(C(C)C)c1n2C [compound (XVI)] |  | − |  |  | − | − |  |  |
| Cc1ccc2c(c1)c1ccncc1n2C [compound (XVII)] |  | ± |  |  | − | ± |  |  |
| C=CCn1c2ccccc2c2ccncc21 [compound (XX)] |  | − |  |  | ± | ± |  |  |
| CCCn1c2ccccc2c2ccncc21 [compound A] |  | − |  |  | − | − |  |  |
| CCCCCCn1c2ccccc2c2ccncc21 [compound B] |  | − |  |  | − | − |  |  |
| CCCCCCCCCCCCCCn1c2ccccc2c2ccncc21 [compound C] |  | ± |  |  | + | ± |  |  |
| C=CCn1c2ccccc2c2ccncc21 [compound D] |  | + |  |  | − | + |  |  |
| CC(C)Cn1c2ccccc2c2ccncc21 [compound E] |  | + |  |  | − | ± |  |  |
| CCn1c2ccccc2c2ccncc21 [compound F] |  | ± |  |  | ± | ± |  |  |
| COCCn1c2ccccc2c2ccncc21 [compound G] |  | ± |  |  | + | ± |  |  |
| C#CCn1c2ccccc2c2ccncc21 [compound H] |  | + |  |  | + | ± |  |  |
| c1ccc(Cn2c3ccccc3c3ccncc32)cc1 [compound I] |  | − |  |  | − | − |  |  |
| COC(=O)CCn1c2ccccc2c2ccncc21 [compound J] |  | ± |  |  | ± | − |  |  |
| CC(C)C(C)Cn1c2ccccc2c2ccncc21 (centres unmarked) [compound K] |  | ± |  |  | ± | − |  |  |
| CN(C)CCn1c2ccccc2c2ccncc21 [compound L] |  | + |  |  | + | ± |  |  |
| Cc1nccc2c1[nH]c1ccccc12 [harman, 1-methyl-β-carboline, reference compound] |  | − |  |  | − | − | increase in neurite length |  |
| B1 |  |  |  |  |  |  |  | neuroprotective properties |
| B2 |  |  |  |  |  |  |  | neuroprotective properties |
